Source: patent US10273226B2, “Pyrazolyl-heteroarylamides as pesticides” (Bayer Animal Health GmbH, priority 2014, dated 2019)

The molecules below were run on Myzus persicae (assay: Myzus persicae spray test). Settings: application rate 100 g/ha; after 6 days.
Format: in vivo
How it was run: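 Chinese cabbage leaf discs infested with all stages of green peach aphid were sprayed with compound formulated in solvent and water containing 1000 ppm emulsifier. Percent kill was assessed after 6 days, where 100% means all aphids dead and 0% none dead.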

Compound | efficacy [%]
Cc1cc(C(=O)Nc2cc(-c3cnn(-c4c(C(F)(F)F)c(C(F)(F)C(F)(F)F)nn4C)c3)ccc2F)ccn1 [Example 1-087] | 90
Cn1nc(C(F)(F)C(F)(F)F)c(C(F)(F)F)c1-n1cc(-c2ccc(F)c(NC(=O)c3ccncc3)c2)cn1 [Example 1-025] | 100
Cn1nc(C(F)(F)C(F)(F)F)c(C(F)(F)F)c1-n1cc(-c2ccc(F)c(NC(=O)c3ccsc3)c2)cn1 [Example 1-041] | 100

What follows are molecules tested on Amblyomma hebraeum (assay: Amblyomma hebraeum test (tick nymphs, immersion)). Settings: application rate 100 ppm; tick nymphs immersed one minute; after 42 days.
Format: in vivo
Experimental: (§1) Solvent: dimethyl sulphoxide
To produce an appropriate active ingredient formulation, 10 mg of active ingredient are mixed with 0.5 ml of dimethyl sulphoxide, and the concentrate is diluted with water to the desired concentration.
Tick nymphs (Amblyomma hebraeum) are placed into perforated plastic cups and immersed in the desired concentration for one minute. The ticks are transferred on filter paper into a Petri dish and stored in a climate-controlled cabinet.
After 42 days, the kill in % is determined. 100% means that all of the ticks have been killed; 0% means that none of the ticks have been killed.

Compound | efficacy (kill in %) [%]
Cc1cc(C(=O)Nc2cc(-c3cnn(-c4c(C(F)(F)F)c(C(F)(F)C(F)(F)F)nn4C)c3)ccc2F)ccn1 [Example 1-087] | 90
Cn1nc(C(F)(F)C(F)(F)F)c(C(F)(F)F)c1-n1cc(-c2ccc(F)c(NC(=O)c3ccncc3)c2)cn1 [Example 1-025] | 100
Cn1nc(C(F)(F)C(F)(F)F)c(C(F)(F)F)c1-n1cc(-c2ccc(F)c(NC(=O)c3ccsc3)c2)cn1 [Example 1-041] | 100

These molecules were tested on Boophilus microplus Parkhurst strain, SP-resistant (assay: Boophilus microplus dip test). Settings: application rate 100 ppm, assessed after 7 days.
Format: in vivo
Experimental: Boophilus microplus—Dip Test
Test animals: cattle ticks (Boophilus microplus) Parkhurst strain, SP-resistant
as §1
10 mg of active ingredient are dissolved in 0.5 ml of dimethyl sulphoxide. For the purpose of producing a suitable formulation, the active ingredient solution is diluted with water to the concentration desired in each case.
This active ingredient formulation is pipetted into tubes. 8-10 adult engorged female cattle ticks (Boophilus microplus) are transferred into a further tube with holes. The tube is immersed into the active ingredient formulation, and all the ticks are completely wetted. After the liquid has run out, the ticks are transferred on filter discs into plastic dishes and stored in a climate-controlled room.
Efficacy is assessed after 7 days by laying of fertile eggs. Eggs which are not visibly fertile are stored in a climate-controlled cabinet until the larvae hatch after about 42 days. An efficacy of 100% means that none of the ticks has laid any fertile eggs; 0% means that all the eggs are fertile.

Compound | efficacy (laying of fertile eggs) [%]
Cc1cc(C(=O)Nc2cc(-c3cnn(-c4c(C(F)(F)F)c(C(F)(F)C(F)(F)F)nn4C)c3)ccc2F)ccn1 [Example 1-087] | 100
Cn1nc(C(F)(F)C(F)(F)F)c(C(F)(F)F)c1-n1cc(-c2ccc(F)c(NC(=O)c3ccncc3)c2)cn1 [Example 1-025] | 100
Cn1nc(C(F)(F)C(F)(F)F)c(C(F)(F)F)c1-n1cc(-c2ccc(F)c(NC(=O)c3ccsc3)c2)cn1 [Example 1-041] | 100

The molecules below were run on Tetranychus urticae (assay: Tetranychus urticae spray test, OP-resistant). Settings: application rate 100 g/ha; after 6 days.
Format: in vivo
How it was run: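 Bean leaf discs (Phaseolus vulgaris) carrying all stages of OP-resistant mites are sprayed with compound formulated in solvent and emulsifier-containing water. Efficacy (% mites killed) is scored after 6 days.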

Compound | efficacy [%]
Cc1cc(C(=O)Nc2cc(-c3cnn(-c4c(C(F)(F)F)c(C(F)(F)C(F)(F)F)nn4C)c3)ccc2F)ccn1 [Example 1-087] | 100
Cn1nc(C(F)(F)C(F)(F)F)c(C(F)(F)F)c1-n1cc(-c2ccc(F)c(NC(=O)c3ccncc3)c2)cn1 [Example 1-025] | 100
Cn1nc(C(F)(F)C(F)(F)F)c(C(F)(F)F)c1-n1cc(-c2ccc(F)c(NC(=O)c3ccsc3)c2)cn1 [Example 1-041] | 100

What follows are molecules tested on Musca domestica (assay: Musca domestica test). Settings: application rate 100 ppm; adult houseflies; after 2 days.
Format: in vivo
How it was run: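 Feeding exposure: adult Musca domestica, 10 per vessel, given a sponge with sugar solution and test formulation at the desired concentration; % mortality determined on day 2.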

Compound | efficacy (kill in %) [%]
Cc1cc(C(=O)Nc2cc(-c3cnn(-c4c(C(F)(F)F)c(C(F)(F)C(F)(F)F)nn4C)c3)ccc2F)ccn1 [Example 1-087] | 100
Cn1nc(C(F)(F)C(F)(F)F)c(C(F)(F)F)c1-n1cc(-c2ccc(F)c(NC(=O)c3ccncc3)c2)cn1 [Example 1-025] | 100

Each molecule was assayed on Lucilia cuprina (assay: Lucilia cuprina test). Settings: application rate 100 ppm; L1 larvae; after 2 days.
Format: in vivo
How it was run: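 About 20 L1 larvae placed in vessels with minced horsemeat treated with compound (DMSO concentrate diluted in water) at the desired concentration. Kill (%) scored after 2 days; 100% means all larvae dead, 0% none.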

Compound | efficacy (kill in %) [%]
Cc1cc(C(=O)Nc2cc(-c3cnn(-c4c(C(F)(F)F)c(C(F)(F)C(F)(F)F)nn4C)c3)ccc2F)ccn1 [Example 1-087] | 100
Cn1nc(C(F)(F)C(F)(F)F)c(C(F)(F)F)c1-n1cc(-c2ccc(F)c(NC(=O)c3ccncc3)c2)cn1 [Example 1-025] | 100
Cn1nc(C(F)(F)C(F)(F)F)c(C(F)(F)F)c1-n1cc(-c2ccc(F)c(NC(=O)c3ccsc3)c2)cn1 [Example 1-041] | 100

Each molecule was assayed on Spodoptera frugiperda (assay: Spodoptera frugiperda spray test). Settings: application rate 100 g/ha; caterpillars; after 7 days.
Format: in vivo
How it was run: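 Maize leaf discs were sprayed with compound formulated in solvent plus water containing 1000 ppm emulsifier, dried, then infested with Spodoptera frugiperda caterpillars. Efficacy in % mortality was scored after 7 days (100% all killed, 0% none).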

Compound | efficacy [%]
Cc1cc(C(=O)Nc2cc(-c3cnn(-c4c(C(F)(F)F)c(C(F)(F)C(F)(F)F)nn4C)c3)ccc2F)ccn1 [Example 1-087] | 100
Cn1nc(C(F)(F)C(F)(F)F)c(C(F)(F)F)c1-n1cc(-c2ccc(F)c(NC(=O)c3ccncc3)c2)cn1 [Example 1-025] | 100
Cn1nc(C(F)(F)C(F)(F)F)c(C(F)(F)F)c1-n1cc(-c2ccc(F)c(NC(=O)c3ccsc3)c2)cn1 [Example 1-041] | 100

The molecules below were run on Phaedon cochleariae (assay: Phaedon cochleariae spray test). Settings: application rate 100 g/ha; larvae; after 7 days.
Format: in vivo
How it was run: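 Chinese cabbage leaf discs were sprayed with the compound formulated in water containing 1000 ppm emulsifier. After drying, they were infested with mustard beetle larvae. Efficacy was scored as % larvae killed after 7 days (100% = all dead, 0% = none).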

Compound | efficacy [%]
Cc1cc(C(=O)Nc2cc(-c3cnn(-c4c(C(F)(F)F)c(C(F)(F)C(F)(F)F)nn4C)c3)ccc2F)ccn1 [Example 1-087] | 100
Cn1nc(C(F)(F)C(F)(F)F)c(C(F)(F)F)c1-n1cc(-c2ccc(F)c(NC(=O)c3ccncc3)c2)cn1 [Example 1-025] | 100
Cn1nc(C(F)(F)C(F)(F)F)c(C(F)(F)F)c1-n1cc(-c2ccc(F)c(NC(=O)c3ccsc3)c2)cn1 [Example 1-041] | 100

What follows are molecules tested on Boophilus microplus (assay: Boophilus microplus injection test). Settings: application rate 20 μg/animal; injection into abdomen; assessed after 7 days.
Format: in vivo
How it was run: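 Read-out is % efficacy from fertile egg laying at 7 days: 100% means no tick laid fertile eggs, 0% means all eggs fertile. Each of 5 engorged adult females received 1 μl of DMSO test solution injected abdominally.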

Compound | efficacy (laying of fertile eggs) [%]
Cc1cc(C(=O)Nc2cc(-c3cnn(-c4c(C(F)(F)F)c(C(F)(F)C(F)(F)F)nn4C)c3)ccc2F)ccn1 [Example 1-087] | 100
Cn1nc(C(F)(F)C(F)(F)F)c(C(F)(F)F)c1-n1cc(-c2ccc(F)c(NC(=O)c3ccncc3)c2)cn1 [Example 1-025] | 100
Cn1nc(C(F)(F)C(F)(F)F)c(C(F)(F)F)c1-n1cc(-c2ccc(F)c(NC(=O)c3ccsc3)c2)cn1 [Example 1-041] | 100

Each molecule was assayed on Rhipicephalus sanguineus (assay: Rhipicephalus sanguineus in vitro contact test with adult brown dog ticks). Settings: application rate 5 μg/cm^2 (500 g/ha); after 48 h; ticks dead or moribund.
Format: in vivo
How it was run: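 Test tubes (25 ml) were coated by dissolving active ingredient in acetone p.a., diluting to the required concentration, and spreading 250 μl over the inner walls and base on an orbital shaker at 30 rpm for 2 h. Once dry, 5-10 adult Rhipicephalus sanguineus were added, and tubes were capped with perforated lids and kept horizontal in darkness at room temperature. At 48 h, ticks were knocked down and heated at 45-50° C. for up to 5 min. Those unable to climb away were counted dead or moribund, and efficacy ran from 0% to 100%.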

Compound | efficacy [%]
Cc1cc(C(=O)Nc2cc(-c3cnn(-c4c(C(F)(F)F)c(C(F)(F)C(F)(F)F)nn4C)c3)ccc2F)ccn1 [Example 1-087] | 80
Cn1nc(C(F)(F)C(F)(F)F)c(C(F)(F)F)c1-n1cc(-c2ccc(F)c(NC(=O)c3ccncc3)c2)cn1 [Example 1-025] | 100
Cn1nc(C(F)(F)C(F)(F)F)c(C(F)(F)F)c1-n1cc(-c2ccc(F)c(NC(=O)c3ccsc3)c2)cn1 [Example 1-041] | 100

These molecules were tested on Ctenocephalides felis (assay: Ctenocephalides felis oral test). Settings: application rate 100 ppm in citrated cattle blood; after 2 days.
Format: in vivo
How it was run: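 Oral exposure of unfed adult fleas, roughly 20 per chamber, to compound-spiked citrated cattle blood taken up across a parafilm membrane. Read-out is percent kill at 2 days, where 100% means every flea dead.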

Compound | efficacy (kill in %) [%]
Cc1cc(C(=O)Nc2cc(-c3cnn(-c4c(C(F)(F)F)c(C(F)(F)C(F)(F)F)nn4C)c3)ccc2F)ccn1 [Example 1-087] | 100
Cn1nc(C(F)(F)C(F)(F)F)c(C(F)(F)F)c1-n1cc(-c2ccc(F)c(NC(=O)c3ccncc3)c2)cn1 [Example 1-025] | 100
Cn1nc(C(F)(F)C(F)(F)F)c(C(F)(F)F)c1-n1cc(-c2ccc(F)c(NC(=O)c3ccsc3)c2)cn1 [Example 1-041] | 100

What follows are molecules tested on Ctenocephalides felis (assay: Ctenocephalides felis in vitro contact test with adult cat fleas). Settings: application rate 5 μg/cm^2 (500 g/ha); after 48 h; fleas dead or moribund.
Format: in vivo
How it was run: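 Test tubes were coated with 250 μl acetone solution of compound, giving 5 μg/cm^2 at 900 ppm, then dried and stocked with 5-10 adult cat fleas. After 48 h at room temperature and ambient humidity, dead or moribund fleas were counted; efficacy given as % (100% = all dead or moribund).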

Compound | efficacy [%]
Cc1cc(C(=O)Nc2cc(-c3cnn(-c4c(C(F)(F)F)c(C(F)(F)C(F)(F)F)nn4C)c3)ccc2F)ccn1 [Example 1-087] | 100
Cn1nc(C(F)(F)C(F)(F)F)c(C(F)(F)F)c1-n1cc(-c2ccc(F)c(NC(=O)c3ccncc3)c2)cn1 [Example 1-025] | 100
Cn1nc(C(F)(F)C(F)(F)F)c(C(F)(F)F)c1-n1cc(-c2ccc(F)c(NC(=O)c3ccsc3)c2)cn1 [Example 1-041] | 100
